Measured values taken from US6703371B1, “Preparations for reducing oxygen consumption during physical efforts” (priority 1999, dated 2004).
Several values for one entry are separate records, joined by “and”; a condition that tells them apart may be missing. Equal values may be shown once. Read-outs that look alike come from different tables or passages of the source.

Tests used:
test subject [1] = test: Bicycle ergometer test at 100 W: active ingredient, sucrose, further active ingredient, amino acid/vitamin product (Example 1c); assay type: in vivo, human; details: for Average heart rate after 4th dos.: 4th dosage 100 mg of Na glutamate, 0.3 mg of folic acid, 5 μg of cyanocobalamin in 10 mg of gelatin; for Average heart rate after 2nd dos.: then 2nd dosage 2.5 g of sucrose
Description: (§1) 13 to Mar. 6, 1999, with a subject in good physical condition under standard conditions. The subject was required each morning in the fasting state to perform successively (without interruption) at mechanical power output of 100 W, 125 W and 150 W, each lasting 10 minutes (total test duration 30 minutes each time). […] The heat production induced by mechanical exertion was calculated from the changes in the heart rate. An alternative possibility is also to determine it on the basis of the increase in humidity caused by the perspiration (the tests are carried out in a closed room) or reduction in weight (1 g of water=2.26 kJ). […] The values indicated in table la for the “average heart rate” are in each case averages over the 30-minute duration of the test; relative values for the oxygen consumption were established on the basis of the heart rates in a known manner, and the relative values indicated in Table 1a are based on the oxygen consumption on the first day (=100%); the values listed in the column “heat production” in Table 1a give the percentage deviation of the heat production, established on the basis of the perspiration, from the average from all the tests.
(§2) It is known that the oxygen uptake can be determined by measuring the heart rate as a function of the mechanical exertion. This ergometric method is based on establishing the oxygen transport volume through the action of the heart. Since the stroke volume is essentially constant irrespective of the intensity of the mechanical work, and the increased oxygen demand caused by the increase in work results in an increase in the heart rate, the quantity of the transported oxygen can be established by determining the additional heartbeats caused by the work. A 3-stage ergometer as recommended by the World Health Organization (WHO) is used in physiology research institutes and fitness clubs around the world.

test subject [2] = test: Bicycle ergometer test at 100 W: antagonism between inactive (1st dosage) and active (2nd dosage) substances (Example 1b); assay type: in vivo, human; details: for Change in the oxygen consumption after 2nd dosage: relative to after 1st dosage; for Average heart rate after 1st dosage: 10-minute test at 100 W
Description: as §1, §2

[3] = Oxygen-sparing action during physical work, general findings in the description; assay type: in vivo; details: result in words; for Oxygen demand after administration: even occasionally increased
test subject [4] = assay type: in vivo, human; details: for change in vivo at 0.2 mg / change in vivo at 1 mg: Homo sapiens, 10 min
test subject [5] = test: Bicycle ergometer test at 100 W: active ingredient, sucrose, further active ingredient, amino acid/vitamin product (Example 1c); assay type: in vivo, human; details: for Change in oxygen consumption after 2nd dos.: 2nd dosage 2.5 g of sucrose; for Change in oxygen consumption after 2nd dos. / Change in oxygen consumption after 4th dos. / Change in oxygen consumption after 3rd dos.: relative to preceding dosage; for Change in oxygen consumption after 4th dos.: 4th dosage Na glutamate/folic acid/cyanocobalamin/gelatin; for Average heart rate after 1st dos.: 10-minute test at 100 W
test subject [6] = test: Bicycle ergometer test at 100 W with gelatin products (Example 7); assay type: in vivo, human
Description: In tests analogous to Example 1, the tests indicated in Table 7 were carried out with gelatin products which were produced in analogy to Examples 3-5. After a warm-up period of 5 minutes in each case firstly the heartbeats were recorded at a mechanical power output of 100 W during a 10-minute control test, then the 1st dosage was administered and immediately thereafter the heart rate was measured in a 10-minute test period with a power output of 100 W. In the case of a 2nd dosage, this further administration and a second 10-minute test period take place with a power output of 100 W immediately following the first test period.

test subject [7] = details: 125 W
Description: Unless otherwise indicated, the tests each took place in the morning in the fasting state, with mechanical power outputs of 100 W, 125 W or 150 W being required in each case from the test subject during one or more 10-minute test periods. A bicycle ergometer from Ergo Fit (Kaiserslautern, Germany) was used for this, and the required work was controlled at 60 pedal revolutions per minute in each case (controlled by a metronome from Seiko, Japan) by means of an eddy current brake. A heart rate computer from Polar Electro (Kempele, Finland) was used for continuous measurement of the heart rate; the atmospheric pressure was measured by an electronic barograph from Altitude Instrumentation (Paris, France) with a resolution of 0.1 mbar; the temperature and relative humidity were measured by an electronic thermohygrometer. The “average heart rates” indicated in the tables are in each case averages of the particular test period. The test subject received a high-carbohydrate diet mainly composed of pasta, and meat of young animals (veal, chicken, fish) in order to ensure an adequate supply of protein, throughout the series of tests. Only 1 test was carried out on each day.
Only 1 test was carried out on each day.

[8] = 3rd dosage further 0.2 mg of active ingredient after sucrose
[9] = after 0.2 mg of active ingredient
[10] = read-out: Change in the oxygen demand
[11] = read-out: Heat production (deviation from the average of all the tests)
[12] = 1st dosage 0.2 mg as dilute aqueous solution
[13] = 3rd dosage further 0.2 mg of active ingredient
[14] = 3rd dosage further 1 mg of active ingredient after sucrose
[15] = after 1 mg of active ingredient
[16] = 1st dosage 1 mg as dilute aqueous solution
[17] = 3rd dosage further 1 mg of active ingredient

For `COc1ccc2c3c1O[C@H]1[C@@H](O)C=C[C@H]4[C@@H](C2)N(C)CC[C@@]341` [codeine], the “Average heart rate after 4th dos.” value (test subject [1]; 0.2 mg series) was 82.9 per minute, the “Average heart rate after 3rd dos.” value (test subject [1]; [8]) was 108 per minute and the “Average heart rate after 2nd dos.” value (test subject [1]; [9]) was 107.3 per minute. The “Change in the oxygen consumption after 2nd dosage” value (from here on “Change in the oxygen consumption”) (test subject [2]; 2nd dosage 0.5 mg, after 0.5 mg of flupentixol, 100 W) was −57%, the “Change in the oxygen consumption” value (test subject [2]; 2nd dosage 0.5 mg, after 1 mg of lorazepam, 100 W) was −59% and the “Change in the oxygen consumption” value (test subject [2]; 2nd dosage 0.5 mg, after 6 mg of amitriptyline + 2.5 mg of chlordiazepoxide, 100 W) was −52%. The “Change in the oxygen consumption” value (test subject [2]; 2nd dosage 0.5 mg, after 7 mg of oxazepam, 100 W) was −67%, the “Change in the oxygen consumption” value (test subject [2]; 2nd dosage 0.5 mg, after 10 mg of chlorprotixen, 100 W) was −69% and the “Average heart rate after 2nd dosage” value (test subject [2]; 2nd dosage 0.5 mg, after 1st dosage of 0.5 mg of flupentixol, 100 W) was 89.7 per minute. For the same molecule, the “Average heart rate after 2nd dosage” value (test subject [2]; 2nd dosage 0.5 mg, after 1st dosage of 1 mg of lorazepam, 100 W) was 91.8 per minute, the “Average heart rate after 2nd dosage” value (test subject [2]; 2nd dosage 0.5 mg, after 1st dosage of 6 mg of amitriptyline + 2.5 mg of chlordiazepoxide, 100 W) was 86.5 per minute and the “Average heart rate after 2nd dosage” value (test subject [2]; 2nd dosage 0.5 mg, after 1st dosage of 7 mg of oxazepam, 100 W) was 104.1 per minute. For the same molecule, the “Average heart rate after 2nd dosage” value (test subject [2]; 2nd dosage 0.5 mg, after 1st dosage of 10 mg of chlorprotixen, 100 W) was 90.0 per minute, the “Suitability for reducing the oxygen consumption during physical work” value [3] was “suitable” and the change in vivo at 0.2 mg (test subject [4]; [10]) was -29%. The change in vivo at 0.2 mg (test subject [4]; [11]) was -27%, the “Change in oxygen consumption after 2nd dos.” value (shortened to “Change … after 2nd dos.”) (test subject [5]; 0.2 mg series) was “+69%” and the “Change in oxygen consumption after 4th dos.” value (“Change … after 4th dos.” below) (test subject [5]; 0.2 mg series) was −50%. For the same molecule, the “Average heart rate after 1st dos.” value (test subject [5]; [12]) was 73.0 per minute and the “Change in oxygen consumption after 3rd dos.” value (from here on “Change … after 3rd dos.”) (test subject [5]; [13]) was “+2%”.
For `CC(CN(C)C)CN1c2ccccc2CCc2ccccc21` (stereo not shown) [trimipramine], the “Oxygen demand after administration” value [3] was “not reduced”, the “Average heart rate after 1st dos.” value (test subject [6]; 1st dosage 12.5 mg, 100 W) was 101.7 per minute and 97.0 per minute and the “Average heart rate before” value (test subject [6]; 10-minute control test at 100 W before the 1st dosage) was 79.8 per minute and 81.7 per minute.
In the case of `O=C1CN=C(c2ccccn2)c2cc(Br)ccc2N1` [bromazepam], the “Average heart rate after 1st dosage” value (test subject [2]; 1st dosage 3 mg in 20 ml of water) is reported as 129.3 per minute, the change in vivo at 3 mg (test subject [2]; Homo sapiens, 1st dosage 3 mg, 100 W, read-out: Change in the oxygen consumption after 1st dosage) is reported as 23% and the “Oxygen demand after administration” value [3] is reported as “not reduced”. The change in vivo at 1 mg (test subject [4]; [10]) was 0% and the change in vivo at 1 mg (test subject [4]; [11]) was 6%.
For `CN1C(=O)CN=C(c2ccccc2)c2cc(Cl)ccc21` [diazepam], the “Average heart rate after 4th dos.” value (test subject [1]; 1 mg series) was 86.3 per minute, the “Average heart rate after 3rd dos.” value (test subject [1]; [14]) was 113.1 per minute and the “Average heart rate after 2nd dos.” value (test subject [1]; [15]) was 111.9 per minute. For the same molecule, the “Change in the oxygen consumption” value (test subject [2]; 2nd dosage 1 mg, after 3 mg of bromazepam, 100 W) was −65%, the “Change in the oxygen consumption” value (test subject [2]; 2nd dosage 1 mg, after 7 mg of oxazepam, 100 W) was −72% and the “Change in the oxygen consumption” value (test subject [2]; 2nd dosage 1 mg, after 10 mg of nitrazepam, 100 W) was −59%. The “Average heart rate after 2nd dosage” value (test subject [2]; 2nd dosage 1 mg, after 1st dosage of 3 mg of bromazepam, 100 W) was 97.0 per minute, the “Average heart rate after 2nd dosage” value (test subject [2]; 2nd dosage 1 mg, after 1st dosage of 7 mg of oxazepam, 100 W) was 89.4 per minute and the “Average heart rate after 2nd dosage” value (test subject [2]; 2nd dosage 1 mg, after 1st dosage of 10 mg of nitrazepam, 100 W) was 102.1 per minute. The “Suitability for reducing the oxygen consumption during physical work” value [3] was “suitable”, the change in vivo at 1 mg (test subject [4]; [10]) was -44% and the change in vivo at 1 mg (test subject [4]; [11]) was -50%. For the same molecule, the “Change … after 2nd dos.” value (test subject [5]; 1 mg series) was “+74%”, the “Change … after 4th dos.” value (test subject [5]; 1 mg series) was −54% and the “Average heart rate after 1st dos.” value (test subject [5]; [16]) was 74.8 per minute. For the same molecule, the “Change … after 3rd dos.” value (test subject [5]; [17]) was “+2%”, the Average heart rate (test subject [7]; 1 mg, atmospheric pressure 1010.0 mbar) was 80 per minute and the Average heart rate (test subject [7]; 1 mg, atmospheric pressure 1010.8 mbar) was 71 per minute. The Average heart rate (test subject [7]; 1 mg, atmospheric pressure 1015.2 mbar) was 77 per minute, the Average heart rate (test subject [7]; 1 mg, atmospheric pressure 1015.9 mbar) was 72 per minute and the Average heart rate (test subject [7]; 1 mg, atmospheric pressure 1017.4 mbar) was 74 per minute. It also gave an Average heart rate (test subject [7]; 1 mg, atmospheric pressure 1017.5 mbar) of 72 per minute, an Average heart rate (test subject [7]; 1 mg, atmospheric pressure 1021.7 mbar) of 76 per minute and an Average heart rate (test subject [7]; 1 mg, atmospheric pressure 1026.3 mbar) of 75 per minute. For the same molecule, the Average heart rate (test subject [7]; 2 mg, atmospheric pressure 1005.9 mbar) was 76 per minute, the Average heart rate (test subject [7]; 2 mg, atmospheric pressure 1007.8 mbar) was 79 per minute and the “Effect of low atmospheric pressure on heart rate and oxygen consumption” value (test subject [7]; result in words) was “can be compensated”.
In the case of `COc1ccc2c(c1)[C@]13CCCC[C@@H]1[C@H](C2)N(C)CC3` [dextromethorphan], the “Average heart rate after 4th dos.” value (test subject [1]; 0.2 mg series) is reported as 87.8 per minute, the “Average heart rate after 3rd dos.” value (test subject [1]; [8]) is reported as 111 per minute and the “Average heart rate after 2nd dos.” value (test subject [1]; [9]) is reported as 110.4 per minute. The “Change in the oxygen consumption” value (test subject [2]; 2nd dosage 0.2 mg, after 6 mg of amitriptyline + 2.5 mg of chlordiazepoxide, 100 W) was −81%, the “Average heart rate after 2nd dosage” value (test subject [2]; 2nd dosage 0.2 mg, after 1st dosage of 6 mg of amitriptyline + 2.5 mg of chlordiazepoxide, 100 W) was 84.8 per minute and the “Suitability for reducing the oxygen consumption during physical work” value [3] was “suitable”. For the same molecule, the change in vivo at 0.2 mg (test subject [4]; [10]) was -57%, the change in vivo at 0.2 mg (test subject [4]; [11]) was -49% and the “Change … after 2nd dos.” value (test subject [5]; 0.2 mg series) was “+69%”. The “Change … after 4th dos.” value (test subject [5]; 0.2 mg series) was −46%, the “Average heart rate after 1st dos.” value (test subject [5]; [12]) was 75.8 per minute and the “Change … after 3rd dos.” value (test subject [5]; [13]) was “+1%”.
With `O=C1CN=C(c2ccccc2)c2cc([N+](=O)[O-])ccc2N1` [nitrazepam] the “Average heart rate after 1st dosage” value (test subject [2]; 1st dosage 10 mg in 20 ml of water) was 131.4 per minute, the change in vivo at 10 mg (test subject [2]; Homo sapiens, 1st dosage 10 mg, 100 W, read-out: Change in the oxygen consumption after 1st dosage) was 21% and the “Oxygen demand after administration” value [3] was “not reduced”. It also gave a change in vivo at 1 mg (test subject [4]; [10]) of 0% and a change in vivo at 1 mg (test subject [4]; [11]) of 7%.
For `Cc1ncc2n1-c1ccc(Cl)cc1C(c1ccccc1F)=NC2` [midazolam], the “Average heart rate after 4th dos.” value (test subject [1]; 1 mg series) was 83.2 per minute, the “Average heart rate after 3rd dos.” value (test subject [1]; [14]) was 112.1 per minute and the “Average heart rate after 2nd dos.” value (test subject [1]; [15]) was 110.9 per minute. The “Suitability for reducing the oxygen consumption during physical work” value [3] was “suitable”, the change in vivo at 1 mg (test subject [4]; [10]) was -42% and the “Effect on the heart rate, the oxygen consumption and the heat production” value (test subject [4]; low dosage, 125 W, result in words) was “marked reduction in the heart rate, the oxygen consumption and the heat production”. The “Change … after 2nd dos.” value (test subject [5]; 1 mg series) was “+70%”, the “Change … after 4th dos.” value (test subject [5]; 1 mg series) was −58% and the “Average heart rate after 1st dos.” value (test subject [5]; [16]) was 75.9 per minute. The “Change … after 3rd dos.” value (test subject [5]; [17]) was “+2%”.
